In ChEMBL document CHEMBL1201862, “PubChem BioAssay data set” (2004):
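Results reflect a 48-hour exposure of cells in 96-well plates to compound at five concentrations. GI50: concentration for 50% inhibition of growth.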 Active and inactive are the calls of the source. No stated cut-off is given here; in the data, active = GI50 up to about 1.1 µM and inactive = higher.

Columns and labels:
Experiment in all cases: growth of human tumour cells (NCI), 48 h
XF498 = system: XF498
RXF 631 = system: RXF 631
DMS-114 = system: DMS-114
M19-MEL = system: M19-MEL
HOP-18 = system: HOP-18
KM-20L2 = system: KM-20L2
DLD-1 = system: DLD-1
SNB-78 = system: SNB-78
DMS-273 = system: DMS-273

| Structure (SMILES) | GI50 (XF498) | GI50 (RXF 631) | GI50 (DMS-114) | GI50 (M19-MEL) | GI50 (HOP-18) | GI50 (KM-20L2) | GI50 (DLD-1) | GI50 (SNB-78) | GI50 (DMS-273) |
| --- | --- | --- | --- | --- | --- | --- | --- | --- | --- |
| COc1ccc(C(=O)CC2=Nc3nnc(CCCCCCCc4nnc5n4C(=O)C(CC(=O)c4ccc(OC)cc4)=N5)n3C2=O)cc1 | > 100 µM (inactive) | > 100 µM (inactive) | > 100 µM (inactive) | > 100 µM (inactive) | > 100 µM (inactive) | > 100 µM (inactive) | > 100 µM (inactive) | – | – |
| CCOC(=O)C(=O)CC1=Nc2ccccc2SC(c2cccc(C)c2)C1 (centres undefined) | – | 16 µM (inactive) | 14.9 µM (inactive) | 18.8 µM (inactive) | – | 17.9 µM (inactive) | 17.8 µM (inactive) | 16 µM (inactive) | 19.6 µM (inactive) |
| O=C(O)c1ccc([C@@H]2C(=O)N(O)[C@@H]3C=CC[C@@H]32)cc1 | > 100 µM (inactive) | > 100 µM (inactive) | > 100 µM (inactive) | > 100 µM (inactive) | – | – | > 100 µM (inactive) | > 100 µM (inactive) | > 100 µM (inactive) |
| N#CC(C(=O)CCCC(=O)Nc1ccc(Cl)cc1Cl)c1ccccc1 (centres undefined) | – | > 100 µM (inactive) | > 100 µM (inactive) | > 100 µM (inactive) | > 100 µM (inactive) | > 100 µM (inactive) | > 100 µM (inactive) | > 100 µM (inactive) | > 100 µM (inactive) |
| COc1cc(C2C(C(=O)Nc3ccc(Cl)c(Cl)c3)=C(C)NC(C)=C2C(=O)Nc2ccc(Cl)c(Cl)c2)ccc1O | 17.4 µM (inactive) | – | 6.49 µM (inactive) | 14.5 µM (inactive) | – | 19.8 µM (inactive) | 10.6 µM (inactive) | 14.9 µM (inactive) | – |
| COc1cc2c(cc1OC)C(C#N)N(C(=O)c1ccccc1)C=C2OC(=O)c1ccccc1 (centres undefined) | 26.5 µM (inactive) | – | 31 µM (inactive) | 33.7 µM (inactive) | 22 µM (inactive) | 52.4 µM (inactive) | 29.6 µM (inactive) | 30 µM (inactive) | 21.7 µM (inactive) |
| CCOC(=O)C(Cc1ccccc1)NC(=O)c1ccc(/N=N/N(C)C)cc1 (centres undefined) | – | – | > 100 µM (inactive) | > 100 µM (inactive) | – | – | > 100 µM (inactive) | – | > 100 µM (inactive) |
| C/C=C(/CCCCNCCCC)[Si](C)(C)C | 11.3 µM (inactive) | 15 µM (inactive) | 14.6 µM (inactive) | 16.8 µM (inactive) | > 10 µM (inactive) | 7.52 µM (inactive) | 14.6 µM (inactive) | 14.2 µM (inactive) | 18.4 µM (inactive) |
| Cn1cc(NC(=O)c2cc(NC(=O)Nc3cc(C(=O)Nc4cc(C(=O)NCCC(=N)N)n(C)c4)n(C)c3)cn2C)cc1C(=O)NCCC(=N)N | 21 µM (inactive) | 23.1 µM (inactive) | 49.3 µM (inactive) | 20.4 µM (inactive) | 71.4 µM (inactive) | 60.5 µM (inactive) | > 100 µM (inactive) | 38.5 µM (inactive) | 13.6 µM (inactive) |
| Nc1nc2c(N)cc(C(F)(F)F)cc2nc1-c1ccccc1 | 50.2 µM (inactive) | – | 86.5 µM (inactive) | > 100 µM (inactive) | > 100 µM (inactive) | > 100 µM (inactive) | > 100 µM (inactive) | > 100 µM (inactive) | > 100 µM (inactive) |
| CN1c2ccccc2N(C(=O)c2ccccc2)C(CC(=O)O)c2cccn21 (centres undefined) | > 100 µM (inactive) | > 100 µM (inactive) | > 100 µM (inactive) | > 100 µM (inactive) | > 100 µM (inactive) | > 100 µM (inactive) | – | – | > 100 µM (inactive) |
| C=C1CC(C/C=C(\C)CC2CC(=C)C(=O)O2)OC1=O (centres undefined) | > 100 µM (inactive) | > 100 µM (inactive) | > 100 µM (inactive) | > 100 µM (inactive) | > 100 µM (inactive) | > 100 µM (inactive) | > 100 µM (inactive) | > 100 µM (inactive) | > 100 µM (inactive) |
| CC(C)(C)OC(=O)N[C@H]1CC(=O)c2ccccc2N(CC(=O)O)C1=O | – | > 100 µM (inactive) | > 100 µM (inactive) | > 100 µM (inactive) | > 100 µM (inactive) | > 100 µM (inactive) | > 100 µM (inactive) | – | > 100 µM (inactive) |
| COc1ccc2nccc(NCCCN3CCN(CCCNc4ccnc5ccc(OC)cc45)CC3)c2c1 | 0.201 µM (active) | – | 0.128 µM (active) | 0.652 µM (active) | – | 0.703 µM (active) | 0.843 µM (active) | 0.873 µM (active) | 0.418 µM (active) |
| CC(=O)O[C@]12CCC[C@H]1C1(O)C(O)CCC[C@H]12 (some centres undefined) | > 100 µM (inactive) | – | > 100 µM (inactive) | > 100 µM (inactive) | > 100 µM (inactive) | > 100 µM (inactive) | – | > 100 µM (inactive) | > 100 µM (inactive) |
| COC(CN1C=C(Sc2ccccc2)CC1)OC | 22.4 µM (inactive) | – | 23.2 µM (inactive) | 31.8 µM (inactive) | 59.3 µM (inactive) | 38.8 µM (inactive) | 29 µM (inactive) | 34.3 µM (inactive) | – |
| CCc1cccc(C(C)C)c1NC(=O)C(=O)C1C(=O)NC(=O)NC1=O | > 100 µM (inactive) | – | > 100 µM (inactive) | > 100 µM (inactive) | > 100 µM (inactive) | > 100 µM (inactive) | > 100 µM (inactive) | – | – |
| Cc1ccc(-n2c(=S)[nH]c3ccc(Br)cc3c2=O)cc1 | > 100 µM (inactive) | – | > 100 µM (inactive) | > 100 µM (inactive) | > 100 µM (inactive) | > 100 µM (inactive) | 67.9 µM (inactive) | – | – |
| CC1CC(=O)C(C(O)CC2CC(=O)N(c3ccccc3)C(=O)C2)C(C)C1 (centres undefined) | – | – | > 100 µM (inactive) | > 100 µM (inactive) | > 100 µM (inactive) | > 100 µM (inactive) | > 100 µM (inactive) | > 100 µM (inactive) | > 100 µM (inactive) |
| c1ccc2c(c1)CCC/C2=N\OCC1CO1 (centres undefined) | 37.6 µM (inactive) | > 100 µM (inactive) | – | > 100 µM (inactive) | 66.2 µM (inactive) | > 100 µM (inactive) | 73.3 µM (inactive) | > 100 µM (inactive) | > 100 µM (inactive) |
| O=C(CSc1nc(-c2ccccc2)c(-c2ccccc2)[nH]1)NNC(=S)Nc1ccccc1 | 61.9 µM (inactive) | – | 57 µM (inactive) | 91.6 µM (inactive) | – | > 100 µM (inactive) | 96.4 µM (inactive) | > 100 µM (inactive) | 92.7 µM (inactive) |
| COC(=O)C(Cc1cc(OC)c(OC)c(OC)c1)c1ccc(OC)cc1 (centres undefined) | – | > 100 µM (inactive) | 62.4 µM (inactive) | > 100 µM (inactive) | > 100 µM (inactive) | > 100 µM (inactive) | > 100 µM (inactive) | > 100 µM (inactive) | > 100 µM (inactive) |
